# Measured values as given in BindingDB's records for doi:10.1021/bi4005182 (The Scripps Research Institute, 2013).
# Target: Bifunctional purine biosynthesis protein ATIC (Homo sapiens, UniProt P31939)
# Assay: Enzyme Activity Assays
# Experimental: Enzyme activity assays of recombinant hGAR Tfase and recombinant hAICAR Tfase were performed as previously described. Kinetics of the enzyme reactions were monitored for 2 min after reaction initiation.
# Sequence of Bifunctional purine biosynthesis protein ATIC (P31939 whole entry): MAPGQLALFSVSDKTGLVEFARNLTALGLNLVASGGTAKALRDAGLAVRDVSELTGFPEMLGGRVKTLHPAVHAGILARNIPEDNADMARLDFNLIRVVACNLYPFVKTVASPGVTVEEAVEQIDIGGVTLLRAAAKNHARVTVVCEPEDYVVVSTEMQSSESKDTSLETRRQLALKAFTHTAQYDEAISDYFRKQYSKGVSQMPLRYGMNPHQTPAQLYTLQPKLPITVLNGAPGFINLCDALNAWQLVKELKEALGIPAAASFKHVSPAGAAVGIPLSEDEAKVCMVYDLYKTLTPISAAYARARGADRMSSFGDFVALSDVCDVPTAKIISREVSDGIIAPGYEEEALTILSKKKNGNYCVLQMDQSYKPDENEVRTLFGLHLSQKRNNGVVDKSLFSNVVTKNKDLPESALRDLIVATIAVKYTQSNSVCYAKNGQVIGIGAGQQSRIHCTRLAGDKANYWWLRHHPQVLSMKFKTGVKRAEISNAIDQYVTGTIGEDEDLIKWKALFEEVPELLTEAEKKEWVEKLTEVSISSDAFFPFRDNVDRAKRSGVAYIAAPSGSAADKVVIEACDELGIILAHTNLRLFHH
structure (smiles),measurement,value
Nc1nc2c(c(=O)[nH]1)C[C@@H](CCc1ccc(C(=O)NC(CCC(=O)O)C(=O)O)cc1)CN2 (stereo partly specified) [Lometrexol (3)],Ki,> 100 µM
